Measured values: patent publication US10189863B2, “5,6-dihydro-4H-benzo[b]thieno-[2,3-d]azepine derivatives” (PULMOCIDE LIMITED, priority 2014, dated 2019)

How the values were obtained:
[1] = system: RSV A2 strain; assay: Assessment of RSV induced CPE in HEp2 cells (RSV A2 strain); type: cell-based; details: human respiratory syncytial virus, HEp2 cells; for IC50: HEp-2, 120 h, 1 MOI, 5 days, read-out: RSV A2 CPE IC50; for inhibition at 0.1 µg/mL / inhibition at 0.01 µg/mL: HEp-2; for inhibition at 0.1 µg/mL: Inhibition (%) at 0.1 μg/mL, read-out: RSV A2 CPE % Inhibition; for inhibition at 0.01 µg/mL: Inhibition (%) at 0.01 μg/mL
Experimental: (§1) Assessment of RSV Induced CPE in HEp2 Cells
(§2) HEp2 cells were seeded (10^3/well/50 μL) in 384-well plates (Catalogue number 353962, BD Falcon, Oxford, UK) in […] containing 2 mM L-glutamine and 1 mM sodium pyruvate one day before infection. RSV A2 strain (#0709161v, NCPV, Public Health England, Wiltshire) or RSV B Washington strain (VR-1580, ATCC, Manassas, Va. 20108) virus solutions were prepared in serum free-DMEM with 2 mM L-glutamine and 1 mM sodium pyruvate, and then added (50 μL/well) to achieve a final virus concentration of 1 MOI. Simultaneously test compounds (0.5 μL DMSO solution) were added to 100 μL of HEp2 cell culture with virus solution to provide a final DMSO solution of 0.5%. Plates were incubated (37° C./5% CO2) for 5 days for studies using RSV A2 strain or 6 days for those using RSV B strain, and then resazurin sodium salt (5 μL of 0.03% solution; Sigma-Aldrich, Dorset, UK) was added to each well and the plate incubated for a further 6 hr (37° C./5% CO2). The fluorescence of each well [545 nm (excitation)/590 nm (emission)] was determined using a multi-scanner (Clariostar: BMG, Buckinghamshire, UK). The percentage inhibition for each well was calculated and the IC50, IC75 and IC90 values were calculated from the concentration-response curve generated for each test compound.

[2] = system: RSV B Washington strain; assay: Assessment of RSV induced CPE in HEp2 cells (RSV B Washington strain); type: cell-based; details: human respiratory syncytial virus, HEp2 cells; for IC50: HEp-2, 144 h, 1 MOI, 6 days, read-out: RSV B CPE IC50; for inhibition at 1 µg/mL / inhibition at 0.1 µg/mL: HEp-2; for inhibition at 1 µg/mL: Inhibition (%) at 1 μg/mL, read-out: RSV B CPE % Inhibition; for inhibition at 0.1 µg/mL: Inhibition (%) at 0.1 μg/mL
Experimental: as §1, §2

[3] = Cell viability: resazurin assay; type: cell-based, human; details: human, HEp2 cells
Experimental: Cell Viability: Resazurin Assay
HEp2 cells were seeded in 384-well plates (10^3/well/50 μL; BD Falcon Ref 353962) in FBS DMEM (5%, containing 2 mM L-glutamine and 1 mM sodium pyruvate) one day before experimentation. Serum-free DMEM (50 μL) was added to test wells while for control wells the media was removed and sterile water (100 μL) was added. Test compounds (0.5 μL DMSO solution) were added to give a final DMSO concentration of 0.5%. Hep2 cells were incubated with each test compound for 5 days (37° C./5% CO2 in 5% FBS) and then resazurin stock solution (5 μL; 0.03%) was added to each well and the plate incubated for a further 6 hr (37° C./5% CO2). The fluorescence of each well at 545 nm (excitation) and 590 nm (emission) was determined using a multi-scanner (Clariostar: BMG Labtech). The percentage loss of cell viability was calculated for each well relative to vehicle (0.5% DMSO) treatment.
Any apparent increase in cell viability associated with test compound treatment relative to vehicle is consequently tabulated as a negative percentage. Where appropriate, a CC50 value was calculated from the concentration-response curve generated from the concentration-response curve for each test compound.

Row | SMILES | IC50 [1] | inhibition at 0.1 µg/mL [1] | IC50 [2] | inhibition at 1 µg/mL [2] | CC50 at 5 days [3] | inhibition at 0.01 µg/mL [1] | inhibition at 0.1 µg/mL [2]
1 | Cc1cc(C(=O)Nc2ccc(C(=O)N3CCc4cc(C(=O)Nc5c(F)cccc5Cl)sc4-c4ccccc43)cc2)c(N2CC3(CCOCC3)C2)nc1C [Example 46, N-(2-chloro-6-fluorophenyl)-6-(4-(5,6-dimethyl-2-(7-oxa-2-azaspiro[3.5]nonan-2-yl)nicotinamido)benzoyl)-5,6-di-hydro-4H-benzo[b]thieno[2,3-d]azepine-2-carboxamide] | 0.069 nM | 100% | 7 nM | 86% | > 13.3 µM |  | 
2 | O=C(Nc1c(F)cc(F)cc1F)c1cc2c(s1)-c1ccccc1N(C(=O)c1ccc(NC(=O)c3cc4ccccc4nc3N3CC4(CCOCC4)C3)cc1)CC2 [Example 88, 6-(4-(2-(7-oxa-2-azaspiro[3.5]nonan-2-yl)quinoline-3-carboxamido)benzoyl)-N-(2,4,6-trifluorophenyl)-5,6-di-hydro-4H-benzo[b]thieno[2,3-d]azepine-2-carboxamide] | 0.58 nM |  | 3 nM | 93% | > 12.9 µM | 93% | 
3 | Cc1cnc(N2CC3(CCOCC3)C2)c(C(=O)Nc2ccc(C(=O)N3CCc4cc(C(=O)Nc5c(F)cccc5F)sc4-c4ccccc43)cc2)c1 [Example 47, N-(2,6-difluorophenyl)-6-(4-(5-methyl-2-(7-oxa-2-aza-spiro[3.5]nonan-2-yl)nicotinamido)benzoyl)-5,6-dihydro-4H-benzo[b]thieno[2,3-d]azepine-2-carboxamide] | 0.13 nM |  | 5.7 nM |  | > 13.9 µM | 100% | 100%
4 | O=C(Nc1ccc(Cl)cc1F)c1cc2c(s1)-c1ccccc1N(C(=O)c1ccc(NC(=O)c3cccnc3N3CC4(CCOCC4)C3)cc1)CC2 [Example 21, 6-(4-(2-(7-oxa-2-azaspiro[3.5]nonan-2-yl)nicotinamido)benzoyl)-N-(4-chloro-2-fluorophenyl)-5,6-dihydro-4H-benzo[b]thieno[2,3-d]azepine-2-carboxamide] | 1.3 nM | 100% | 100 nM | 73% | > 13.8 µM |  | 
5 | Cc1ccc(C(=O)Nc2ccc(C(=O)N3CCc4cc(C(=O)Nc5c(F)cccc5Cl)sc4-c4ccccc43)cc2)c(N2CC3(CCOCC3)C2)n1 [Example 41, N-(2-chloro-6-fluorophenyl)-6-(4-(6-methyl-2-(7-oxa-2-azaspiro[3.5]nonan-2-yl)nicotinamido)benzoyl)-5,6-dihydro-4H-benzo[b]thieno[2,3-d]azepine-2-carboxamide] | 0.11 nM | 100% | 15.4 nM | 79% | > 13.6 µM |  | 
6 | Cc1cnc(N2CC3(CCOCC3)C2)c(C(=O)Nc2ccc(C(=O)N3CCc4cc(C(=O)Nc5c(F)cccc5I)sc4-c4ccccc43)cc2)c1 [Example 6, N-(2-Fluoro-6-iodophenyl)-6-(4-(5-methyl-2-(7-oxa-2-azaspiro[3.5]nonan-2-yl)nicotinamido)benzoyl)-5,6-dihydro-4H-benzo[b]thieno[2,3-d]azepine-2-carboxamide] | 0.13 nM |  | 4.2 nM | 100% | > 12.1 µM | 100% | 
7 | Cc1ccc(C(=O)Nc2ccc(C(=O)N3CCc4cc(C(=O)Nc5c(F)cccc5F)sc4-c4ccccc43)cc2)c(N2CC3(CCOCC3)C2)n1 [Example 49, N-(2,6-difluorophenyl)-6-(4-(6-methyl-2-(7-oxa-2-aza-spiro[3.5]nonan-2-yl)nicotinamido)benzoyl)-5,6-dihydro-4H-benzo[b]thieno[2,3-d]azepine-2-carboxamide] | 0.13 nM | 100% | 1.3 nM | 100% | > 13.9 µM |  | 
8 | COc1ccc(NC(=O)c2cc3c(s2)-c2ccccc2N(C(=O)c2ccc(NC(=O)c4cccnc4N4CC5(CCOCC5)C4)cc2)CC3)c(F)c1 [Example 23, 6-(4-(2-(7-oxa-2-azaspiro[3.5]nonan-2-yl)nicotinamido)benzoyl)-N-(2-fluoro-4-methoxyphenyl)-5,6-dihydro-4H-benzo[b]thieno[2,3-d]azepine-2-carboxamide] | 1.1 nM | 100% | 16.3 nM | 55% | > 13.9 µM |  | 
9 | Cc1cnc(N2CC3(CCOCC3)C2)c(C(=O)Nc2ccc(C(=O)N3CCc4cc(C(=O)Nc5ccc(F)cc5F)sc4-c4ccccc43)cc2)c1 [Example 38, N-(2,4-difluorophenyl)-6-(4-(5-methyl-2-(7-oxa-2-aza-spiro[3.5]nonan-2-yl)nicotinamido)benzoyl)-5,6-dihydro-4H-benzo[b]thieno[2,3-d]azepine-2-carboxamide] | < 0.014 nM | 100% | 18.4 nM | 73% | > 13.9 µM |  | 
10 | O=C(Nc1c(F)cccc1F)c1cc2c(s1)-c1ccccc1N(C(=O)c1ccc(NC(=O)c3cc4c(nc3N3CC5(CCOCC5)C3)CCOC4)cc1)CC2 [Example 82, N-(4-(2-((2,6-difluorophenyl)carbamoyl)-5,6-dihydro-4H-benzo[b]thieno[2,3-d]azepine-6-carbonyl)phenyl)-2-(7-oxa-2-azaspiro[3.5]nonan-2-yl)-7,8-dihydro-5H-pyrano[4,3-b] pyridine-3-carboxamide] | 0.78 nM |  | 7.6 nM |  | > 13.1 µM | 97% | 100%
11 | CCc1cnc(N2CC3(CCOCC3)C2)c(C(=O)Nc2ccc(C(=O)N3CCc4cc(C(=O)Nc5c(F)cccc5Cl)sc4-c4ccccc43)cc2)c1 [Example 61, N-(2-chloro-6-fluorophenyl)-6-(4-(5-ethyl-2-(7-oxa-2-azaspiro[3.5]nonan-2-yl)nicotinamido)benzoyl)-5,6-dihydro-4H-benzo[b]thieno[2,3-d]azepine-2-carboxamide] | 0.13 nM | 97% | 4.1 nM | 100% | > 13.3 µM |  | 
12 | Cc1cnc(N2CC3(CCOCC3)C2)c(C(=O)Nc2ccc(C(=O)N3CCc4cc(C(=O)Nc5c(C)cccc5C#N)sc4-c4ccccc43)cc2)c1 [Example 62, N-(2-cyano-6-methylphenyl)-6-(4-(5-methyl-2-(7-oxa-2-azaspiro[3.5]nonan-2-yl)nicotinamido)benzoyl)-5,6-dihydro-4H-benzo[b]thieno[2,3-d]azepine-2-carboxamide] | 0.13 nM |  | 0.9 nM | 100% | > 13.8 µM | 89% | 
13 | Cc1cccc(C#N)c1NC(=O)c1cc2c(s1)-c1ccccc1N(C(=O)c1ccc(NC(=O)c3cc4c(nc3N3CC5(CCOCC5)C3)CCC4)cc1F)CC2 [Example 77, 6-(4-(2-(7-oxa-2-azaspiro[3.5]nonan-2-yl)-6,7-dihydro-5H-cyclopenta[b]pyridine-3-carboxamido)-2-fluorobenzoyl)-N-(2-cyano-6-methylphenyl)-5,6-dihydro-4H-benzo[b]thieno [2,3-d]azepine-2-carboxamide] | 4.9 nM |  | 19.2 nM | 92% | > 13 µM | 94% | 
